This passage reports IC50 and melting point results from patent US20230278958A1 (Merck Patent GmbH, priority 2020, published 2023).

Data set [1] concerns YAP-TEAD interaction. Briefly: SK-HEP-1 reporter assay (8x TEAD responsive elements driving NanoLuc luciferase). It counts as cell-based. The following applies: Homo sapiens, SK-HEP1; SK-HEP-1 TEAD-NanoLuc reporter cells, 24 hour incubation, luciferase readout. The protocol:
To identify inhibitors of YAP-TEAD interaction, 8× TEAD responsive elements driving the NanoLuc® luciferase gene were stably integrated into SK-HEP-1 cells (ECACC #: 91091816).
For the assay, cells were treated in duplicates with the test compounds in a 10-point dose, with the top concentration starting at 30 μM (final concentration in assay). After a 24 hour incubation at 37° C., 95% rH, and 5% CO2, a luciferase substrate/lysis reagent mix (NanoGlo™, Promega) was added to the cells, allowing the quantification of cellular luciferase activity.
Cell Media: The cells were cultured in the following media: MEM, +10% FBS, +1× GlutaMAX, +1 mM Sodium-Pyruvate, +100 μM Non-essential amino acids, +0.1 mg/ml Hygromycin. The media used for the assay was: MEM (w/o Phenol Red), +10% FBS, +1× GlutaMAX, +1 mM Sodium-Pyruvate, +100 μM Non-essential amino acids, +0.5% Pen/Strep
(§1) Reagents: The reagents used are listed below:
Cell culture: The cells were examined using an inverted microscope to check for health and cell density. To dissociate adherent cells, the monolayer of cells was washed once with pre-warmed PBS. After removing the PBS, 3 ml pre-warmed Accutase® was added to a F75 flask, dispersed evenly and the flask was allowed to sit in incubator for ˜4-5 minutes.
(§2) When a single cell suspension was obtained, 7 ml of prewarmed growth media was added and resuspended with the cells. The cell suspension was transferred to a sterile 15 ml conical centrifuge tube, and spun for 5 min at 300×g, RT. The supernatant was discarded and the pellet was resuspended in 10 ml of pre-warmed growth media.
(§3) The total cell count was determined, and 20 μl of the desired cell number was added to each well of a 384 well plate using a Multidrop Combi. The plates were then incubated for 24 hours at 37° C., 95% rH, and 5% CO2.
(§4) Compound treatment: 24 hours after seeding, the cells were treated with compounds.
(§5) A 1:333 dilution of compounds, diluted in DMSO, was made to get a final concentration of 0.3% DMSO per well. To transfer the compounds to the assay plate, 120 nl was shot from Labcyte low dead volume plates to the cell plates containing 20 μl media/well with the ECHO 555 liquid handling system.
(§6) After treatment, the cells were fed with 20 μl fresh pre-warmed assay media using a Multidrop combi.
The assay plates were then incubated for another 24 h at 37° C., 95% rH, and 5% CO2.
Luciferase readout: 24 h after treatment, the plates were taken out of the incubator and were allowed to equilibrate to RT. 30 μl of NanoGlo® reagent was added to the plates in the dark. Plates were shaken for 20 min on a Teleshake (˜1500 rpm) in the dark. The luminescence was then measured using an EnVision microplate reader. The IC50 values were generated using Genedata Screener®.
Experimental data in SK-HEP-1 reporter assay of the compounds shown in Table 1 are shown in Table 2 below and classified in the following groups: […]
(In a reporter assay the amount or activity of a reporter protein is the signal.)

Data set [2] has as its system NCI-H226 cells. Briefly: Viability assay in NCI-H226 (Yap-dependent) cells, CyQUANT. To be noted: Homo sapiens, 96 hour incubation. It counts as cell-based. The protocol:
The ability of YAP-TEAD inhibitors to inhibit tumor cell growth was evaluated using two different cell lines: NCI-H226, which is a YAP dependent cell line, and SW620 cells, where YAP and TAZ were knocked out using CRISPR to generate a YAP independent cell line.
For the assay, cells were treated in duplicates with the test compounds in a 10-point dose, 1:3 dilution steps, with the top concentration starting at 30 μM (final concentration in assay). After a 96 hour incubation at 37° C., 95% rH, and 5% CO2, a cell-permeant DNA-binding dye that stains only healthy cells (CyQUANT®, Promega) was added to the cells, allowing the quantification of cell viability.
Cell Media: The NCI-H226 cells were cultured in the following media: RPMI 1640, +10% FBS, +1× GlutaMAX, +10 mM HEPES, +0.5% Pen/Strep. The SW620-KO cells were cultured in the following media: DMEM/F-12, +10% FBS, +1× GlutaMAX, +10 mM HEPES, +0.5% Pen/Strep.
as §1
Cell culture: The cells were examined using an inverted microscope to check for health, cell density, etc. To dissociate adherent cells, the monolayer of cells was washed once with pre-warmed PBS. After removing the PBS, 3 ml pre-warmed Accutase was added to a F75 flask, dispersed evenly and the flask was allowed to sit in incubator for ˜4-5 minutes.
as §2, §3, §4, §5, §6
The assay plates were then incubated for 96 h at 37° C., 95% rH, and 5% CO2.
96h after treatment 30 μl of CyQuant® reagent was added to the assay plates using a Multidrop combi in the dark. The plates were then incubated for 1 hour at 37° C., 95% rH and 5% CO2. Thereafter, the assay plates were removed from the incubator and allowed to equilibrate to RT for 30 min in the dark without lid. Finally, they were measured using an EnVision microplate reader with a FITC bottom read program.
Experimental data in the Viability assay of the compounds shown in Table 1 are shown in Table 3 below and classified in the following groups: […]

Regarding `O=C(O)c1ccc2c(c1)c1cc(F)ccc1n2-c1ccc(C(F)(F)F)cc1` [Compound 11, 6-fluoro-9-[4-(trifluoromethyl)phenyl]-9H-carbazole-3-carboxylic acid], the melting point (as a rule, the temperature of the solid-liquid transition) is 202 to 204 °C. Also, the IC50 (usually the point on the concentration scale where inhibition reaches its midpoint) in data set [1] lay in the range of 10 to 100 nM. Moreover, in data set [2], the half-maximal inhibitory concentration (IC50) was in the range of 0.1 to 1 µM.

In the case of `CC(C)c1ccc2c(c1)c1cc(C(=O)O)ccc1n2-c1ccc(C(F)(F)F)cc1` [Compound 13, 6-(propan-2-yl)-9-[4-(trifluoromethyl)phenyl]-9H-carbazole-3-carboxylic acid], the melting point is 271 to 272 °C. Further, the half-maximal inhibitory concentration (IC50) in data set [1] lay in the range of 10 to 100 nM. In data set [2], this compound displayed a concentration for half-maximal inhibition (IC50) of 0.1 to 1 µM.

`O=C(O)c1ccc2c(c1)c1cc(C(F)(F)F)ccc1n2-c1ccc(C(F)(F)F)cc1` [Compound 14, 6-(trifluoromethyl)-9-[4-(trifluoromethyl)phenyl]-9H-carbazole-3-carboxylic acid] yielded a melting point of 292 to 294 °C. This compound had a half-maximal inhibitory concentration (IC50) in data set [1] of 1 to 10 nM. The compound further showed an IC50 in data set [2] of 0.1 to 1 µM.

`O=C(O)c1ccc2c(c1)c1nc(C(F)(F)F)ccc1n2-c1ccc(C(F)(F)F)cc1` [Compound 16, 2-(trifluoromethyl)-5-[4-(trifluoromethyl)phenyl]-5H-pyrido[3,2-b]indole-8-carboxylic acid]: the melting point lay within 160 to 162 °C. In data set [1], this compound gave a half-maximal inhibitory concentration (IC50) of 10 to 100 nM. The compound further yielded a half-maximal inhibitory concentration (IC50) in data set [2] of 0.001 to 0.1 µM.

In turn, `Cc1ccc2c(n1)c1cc(C(=O)O)ccc1n2-c1ccc(C(F)(F)F)cc1` [Compound 17, 2-methyl-5-[4-(trifluoromethyl)phenyl]-5H-pyrido[3,2-b]indole-8-carboxylic acid] came in with a melting point of 300 °C. In data set [1], the IC50 is 1 to 10 nM. Moreover, the IC50 in data set [2] fell in the range of 0.001 to 0.1 µM.

Compound `O=C(O)c1ccc2c(c1)c1nc(F)ccc1n2-c1ccc(C(F)(F)F)cc1` [Compound 18, 2-fluoro-5-[4-(trifluoromethyl)phenyl]-5H-pyrido[3,2-b]indole-8-carboxylic acid] came in with a melting point of 300 °C. Besides, the IC50 in data set [1] lay in the range of 10 to 100 nM. For the same compound, the IC50 in data set [2] lay in the range of 0.1 to 1 µM.

On to `CNC(=O)c1ccc2c(c1)c1nc(F)ccc1n2-c1ccc(C(F)(F)F)cc1` [Compound 25, 2-fluoro-N-methyl-5-[4-(trifluoromethyl)phenyl]-5H-pyrido[3,2-b]indole-8-carboxamide], for which the melting point was 250 to 252 °C. In data set [1], this compound returned an IC50 of 100 to 1000 nM.

`O=C(O)c1cc2c3cccnc3n(Cc3ccc(C(F)(F)F)cc3)c2cn1` [Compound 34, 8-{[4-(trifluoromethyl)phenyl]methyl}-5,8,10-triazatricyclo[7.4.0.0^2,^7]trideca-1(9),2,4,6,10,12-hexaene-4-carboxylic acid]: the melting point was 195 to 200 °C. Further, the IC50 in data set [1] is 100 to 1000 nM.

With `Cc1ccc2c(c1)c1cc(C(=O)NCc3ccccn3)ccc1n2-c1ccc(C(F)(F)F)cc1` [Compound 51, 6-methyl-N-[(pyridin-2-yl)methyl]-9-[4-(trifluoromethyl)phenyl]-9H-carbazole-3-carboxamide], the 50% inhibitory concentration (IC50) in data set [1] is 100 to 1000 nM; in data set [2] it was 0.1 to 1 µM.

As for `Cc1ccc2c(c1)c1cc(C(=O)NCc3cccnc3)ccc1n2-c1ccc(C(F)(F)F)cc1` [Compound 52, 6-methyl-N-[(pyridin-3-yl)methyl]-9-[4-(trifluoromethyl)phenyl]-9H-carbazole-3-carboxamide], the IC50 in data set [1] was 100 to 1000 nM; in data set [2], 0.001 to 0.1 µM.

`Cc1ccc2c(c1)c1cc(C(=O)NCc3ccncn3)ccc1n2-c1ccc(C(F)(F)F)cc1` [Compound 53, 6-methyl-N-[(pyrimidin-4-yl)methyl]-9-[4-(trifluoromethyl)phenyl]-9H-carbazole-3-carboxamide]: the IC50 was 10 to 100 nM in data set [1] and 0.001 to 0.1 µM in data set [2].

Take `Cc1ccc2c(c1)c1cc(C(=O)NC3(CO)CCC3)ccc1n2-c1ccc(C(F)(F)F)cc1` [Compound 54, N-[1-(hydroxymethyl)cyclobutyl]-6-methyl-9-[4-(trifluoromethyl)phenyl]-9H-carbazole-3-carboxamide]: the IC50 in data set [1] lay in the range of 100 to 1000 nM; in data set [2], 0.1 to 1 µM.

As for `Cc1ccc2c(c1)c1cc(C(=O)NCC(O)CO)ccc1n2-c1ccc(C(F)(F)F)cc1` (stereo not shown) [Compound 55, N-(2,3-dihydroxypropyl)-6-methyl-9-[4-(trifluoromethyl)phenyl]-9H-carbazole-3-carboxamide], the IC50 in data set [1] fell in the range of 10 to 100 nM; in data set [2], 0.001 to 0.1 µM.

Regarding `Cc1ccc2c(c1)c1cc(C(=O)N[C@@H](CO)C3CCC3)ccc1n2-c1ccc(C(F)(F)F)cc1` [Compound 56, N-[(1R)-1-cyclobutyl-2-hydroxyethyl]-6-methyl-9-[4-(trifluoromethyl)phenyl]-9H-carbazole-3-carboxamide], the IC50 was 10 to 100 nM in data set [1] and 0.001 to 0.1 µM in data set [2].

As to `Cc1ccc2c(c1)c1cc(C(=O)N[C@H]3COC[C@@H]3O)ccc1n2-c1ccc(C(F)(F)F)cc1` [Compound 57, N-[(3S,4R)-4-hydroxyoxolan-3-yl]-6-methyl-9-[4-(trifluoromethyl)phenyl]-9H-carbazole-3-carboxamide], the half-maximal inhibitory concentration (IC50) in data set [1] fell in the range of 100 to 1000 nM; in data set [2], 0.1 to 1 µM.

With `Cc1ccc2c(c1)c1cc(C(=O)N[C@H](c3ccccc3)[C@H](C)O)ccc1n2-c1ccc(C(F)(F)F)cc1` [Compound 58, N-[(1R,2S)-2-hydroxy-1-phenylpropyl]-6-methyl-9-[4-(trifluoromethyl)phenyl]-9H-carbazole-3-carboxamide], the IC50 was 100 to 1000 nM in data set [1] and 0.1 to 1 µM in data set [2].

For the compound `Cc1ccc2c(c1)c1cc(C(=O)NCc3ccncc3)ccc1n2-c1ccc(C(F)(F)F)cc1` [Compound 59, 6-methyl-N-[(pyridin-4-yl)methyl]-9-[4-(trifluoromethyl)phenyl]-9H-carbazole-3-carboxamide], the IC50 is 10 to 100 nM in data set [1] and 0.1 to 1 µM in data set [2].

Turning to `COCCC(CO)NC(=O)c1ccc2c(c1)c1cc(C)ccc1n2-c1ccc(C(F)(F)F)cc1` (stereo not shown) [Compound 61, N-(1-hydroxy-4-methoxybutan-2-yl)-6-methyl-9-[4-(trifluoromethyl)phenyl]-9H-carbazole-3-carboxamide], the IC50 in data set [1] is 100 to 1000 nM; in data set [2] it was 0.1 to 1 µM.

For the compound `Cc1cc2c3cc(C(=O)O)ccc3n(-c3ccc(C(F)(F)F)cc3)c2cc1C` [Compound 62, 6,7-dimethyl-9-[4-(trifluoromethyl)phenyl]-9H-carbazole-3-carboxylic acid], the IC50 was 1 to 10 nM in data set [1] and 0.1 to 1 µM in data set [2].

Regarding `Cc1ccc2c(c1)c1cc(C(=O)O)ccc1n2-c1ccc(OC(F)(F)F)cc1` [Compound 63, 6-methyl-9-[4-(trifluoromethoxy)phenyl]-9H-carbazole-3-carboxylic acid], the 50% inhibitory concentration (IC50) in data set [1] was in the range of 1 to 10 nM; in data set [2], 1 to 10 µM.
